# Values joined by “and” are separate entries in the source; they are usually repeats but may differ in a detail not shown here. Equal entries are not always repeated.
# How the values were obtained:
# Type in all cases: cell-based
# [1] = test system: MCF-7 cells; experiment: MTT assay for cell proliferation, MCF-7; parameters: key to Inhibitory rate / Inhibition rate: inhibition rate = 1 - mean A490 sample/mean A490 control (fraction); conditions: for Inhibition rate (16μM), 48 h, MCF-7: preliminary screening, MCF-7, 16 μM, mean±SD, unit not given
# Method: (§1) HepG2, HeLa, MCF-7, and KYSE-30 cells were grown in a humidified incubator at 37°C with 5% CO2 in DMEM supplemented with 10% fetal bovine serum (FBS), […] streptomycin, and 100 U/mL penicillin.
# (§2) When HepG2 cells reached 80% confluence, they were treated with 1 mL of trypsin and resuspended at a density of 10^5 cells/mL. Then, 100 μL of cell suspension was seeded into each well of a 96-well plate and incubated in a humidified atmosphere. The different concentrations of KJ-5 and KJ-12 (0, 1, 2, 4, 8, 16, and 32 μM) were added to each well, and the cells were further incubated for 48 h. Afterward, 20 μL of the MTT solution (5 mg/mL) was added to each well, and incubation was continued for another 4 h. The supernatant was discarded, and 200 μL of the DMSO solution was added to each well. The plate was shaken for 10 min in the dark. The absorbance values were measured at 490 nm using an enzyme-linked detector. The cell inhibition rate (%) was calculated using the following formula: (1-Mean A490 sample/Mean A490 control) × 100%.
# [2] = test system: HepG2 cells; experiment: MTT assay for cell proliferation and cytotoxicity, HepG2; parameters: key to Inhibitory rate: inhibition rate = 1 - mean A490 sample/mean A490 control (fraction); conditions: for IC50: HepG2, 48 h, MTT; for Inhibitory rate / ODtreated/ODcontrol: HepG2, fraction, per experiment; for Inhibition rate (16μM), 48 h, HepG2: preliminary screening, HepG2, 16 μM, mean±SD, unit not given
# Method: as §1, §2
# [3] = test system: KYSE-30 cells; experiment: MTT assay for cell proliferation, KYSE-30; parameters: key to Inhibitory rate: inhibition rate = 1 - mean A490 sample/mean A490 control (fraction); conditions: for Inhibitory rate: KYSE-30, given as fraction; for Inhibition rate (16μM), 48 h, KYSE-30: preliminary screening, KYSE-30, 16 μM, mean±SD, unit not given
# Method: as §1, §2
# [4] = test system: HeLa cells; experiment: MTT assay for cell proliferation, HeLa; parameters: key to Inhibitory rate: inhibition rate = 1 - mean A490 sample/mean A490 control (fraction); conditions: Hela; for Inhibitory rate / ODtreated/ODcontrol: fraction, per experiment; for Inhibition rate (16μM), 48 h, Hela: preliminary screening, mean±SD, unit not given
# Method: as §1, §2
# [5] = MCF-7, fraction, per experiment
# [6] = given as fraction, second of three experiments
# [7] = given as fraction, third of three experiments
# [8] = KYSE-30, first of three experiments
# [9] = KYSE-30, second of three experiments
# [10] = KYSE-30, third of three experiments
SMILES,"Inhibitory rate [1, 5]","ODtreated/ODcontrol [1, 5]","Inhibitory rate [1, 6]","Inhibition rate [1, 7]","Inhibition rate (16μM), 48 h, MCF-7 [1]",ODtreated/ODcontrol ([1]; second of three experiments),ODtreated/ODcontrol ([1]; third of three experiments),IC50 [2],Inhibitory rate [2],ODtreated/ODcontrol [2],"Inhibition rate (16μM), 48 h, HepG2 [2]","ODtreated/ODcontrol [3, 8]",Inhibitory rate ([3]; first of three experiments),Inhibitory rate ([3]; second of three experiments),Inhibitory rate ([3]; third of three experiments),"ODtreated/ODcontrol [3, 9]","ODtreated/ODcontrol [3, 10]","Inhibition rate (16μM), 48 h, KYSE-30 [3]",Inhibitory rate [4],ODtreated/ODcontrol [4],also measured
CCc1ccccc1-n1cc(-c2cccc(NC(=O)c3cn4c(c(OC)c3=O)C(=O)N3[C@@H](C)CO[C@@H]3C4)c2)nn1 [KJ-4],0.4901,0.5099,0.5179,0.4059,47.13±5.83,0.4821,0.5941,15.1 ± 0.28 µM,0.5128 and 0.512 and 0.5016,0.4872 and 0.488 and 0.4984,50.88±0.63,0.492,0.508,0.3924,0.4136,0.6076,0.5864,43.8±6.15,0.4763 and 0.5136 and 0.3886,0.5237 and 0.4864 and 0.6114,"Inhibition rate (16μM), 48 h, Hela [4]: 45.95±6.42"
COc1c2n(cc(C(=O)Nc3cccc(-c4cn(-c5cccc(F)c5)nn4)c3)c1=O)C[C@H]1OC[C@H](C)N1C2=O [KJ-6],0.5139,0.4861,0.536,0.519,52.3±1.16,0.464,0.481,7.63 ± 1.2 µM,0.6124 and 0.6058 and 0.5961,0.3876 and 0.3942 and 0.4039,60.48±0.82,0.3817,0.6183,0.5213,0.4998,0.4787,0.5002,54.65±6.31,0.6049 and 0.5572 and 0.5217,0.3951 and 0.4428 and 0.4783,"Inhibition rate (16μM), 48 h, Hela [4]: 56.13±4.18"
COc1ccccc1-n1cc(-c2cccc(NC(=O)c3cn4c(c(OC)c3=O)C(=O)N3[C@@H](C)CO[C@@H]3C4)c2)nn1 [KJ-7],0.4361,0.5639,0.4406,0.3594,41.2±4.56,0.5594,0.6406,21.7 ± 1.07 µM,0.4068 and 0.4092 and 0.416,0.5932 and 0.5908 and 0.584,41.07±0.48,0.5159,0.4841,0.4213,0.4377,0.5787,0.5623,44.77±3.26,0.3847 and 0.3789 and 0.3067,0.6153 and 0.6211 and 0.6933,"Inhibition rate (16μM), 48 h, Hela [4]: 35.68±4.35"
COc1c2n(cc(C(=O)Nc3cccc(-c4cn(-c5cccc(C(F)(F)F)c5)nn4)c3)c1=O)C[C@H]1OC[C@H](C)N1C2=O [KJ-8],0.6331,0.3669,0.5745,0.558,58.85±3.95,0.4255,0.442,9.41 ± 1.3 µM,0.6351 and 0.626 and 0.6586,0.3649 and 0.374 and 0.3414,63.99±1.68,0.3962,0.6038,0.6049,0.5814,0.3951,0.4186,59.67±1.33,0.6574 and 0.6919 and 0.6249,0.3426 and 0.3081 and 0.3751,"Inhibition rate (16μM), 48 h, Hela [4]: 65.81±3.35"
COc1c2n(cc(C(=O)Nc3cccc(-c4cn(-c5ccccc5OC(F)(F)F)nn4)c3)c1=O)C[C@H]1OC[C@H](C)N1C2=O [KJ-9],0.7135,0.2865,0.7214,0.6147,68.32±5.95,0.2786,0.3853,5.06 ± 0.06 µM,0.8207 and 0.8024 and 0.7986,0.1793 and 0.1976 and 0.2014,80.72±1.18,0.3517,0.6483,0.6765,0.5914,0.3235,0.4086,63.87±4.34,0.7654 and 0.7384 and 0.7732,0.2346 and 0.2616 and 0.2268,"Inhibition rate (16μM), 48 h, Hela [4]: 75.9±1.83"

# — article PMC10590056, “Design and synthesis of cabotegravir derivatives bearing 1,2,3-triazole and evaluation of anti-liver cancer activity” (Frontiers in Pharmacology, 2023)
